Test results from paper PMC10732398 (PLOS Pathogens, 2023).

Experiments:
[1] = test system: ⍺4β7; assay: SPR: inhibition by linear peptides of soluble ⍺4β7 binding to a CD4 D1D2 coated surface; conditions: SPR peptide scan (Fig 4A); ⍺4β7 pre-incubated with peptide 2 hours at room temperature; 1 mM MnCl2
Excerpt: We next modified our SPR -based assay in order to map the site(s) on CD4 that interacts with ⍺4β7. In this modified assay ⍺4β7 was passed over a surface coated with CD4 D1D2 in the absence or presence of 42 overlapping 15 amino acid linear peptides spanning CD4 residues 1–178 (S2 Table). Two peptides located in CD4 D1, #7 and #9, inhibited ⍺4β7 binding by ~17% (Fig 4A). The final peptide in CD4 D2, p42, inhibited binding by ~ 66%. Linear peptides often lack the true conformation of the protein from which they are derived. Additionally, the kinetic format of our assay allows for ligand-analyte rebinding during the association phase. These features render this inhibition assay somewhat insensitive. Nevertheless, the dynamic range of this assay is sufficient to identify interactions that are worthy of follow-up investigation (S4 Fig). As such, our preliminary findings raised the possibility that both D1 and D2 domains of CD4 interact with ⍺4β7. Of note, MAdCAM-1 and VCAM-1, like CD4, present two tandemly arrayed N-terminal IgSF domains (Fig 4B). In both cases, binding to ⍺4β7 is mediated by a 1° binding site in their D1s and an accessory site, located in their D2s. The term accessory is a misnomer insofar as these sites plays an essential role in ⍺4β7 binding. Follow-up experiments focused on p9 and p42, which we herein refer to as pCD4^33-47 and pCD4^165-178. pCD4^33-47 partially overlaps the D1 C’C” β-strands and a connecting loop. The primary gp120 contact site (Phe^43) lies at the N-terminal edge of this loop (Fig 4C). pCD4^165-178 includes Q^165 and K^166. These residues lie primarily within the G β-strand of D2, close to the boundary with D3. Because peptide inhibition assays sometime mediate nonspecific effects, further analysis was performed to better establish the role of these two regions of CD4 in binding to ⍺4β7.
To determine if this is the case, we employed an SPR -based assay. Biosensor surfaces were coated with either CD4 D1D2 or a 42 aa cyclic V2 peptide derived from the subtype E 92TH023 gp120 (cV2 92TH023). A third surface coated with MAdCAM-Ig was employed as a positive control. Soluble ⍺4β7 was passed over these surfaces. We then evaluated the capacity of staggered 15 aa peptides that span either CD4 D2 or gp120 V2 to inhibit this interaction (Fig 7A).
Experiments were performed using a Biacore 3000 instrument (Cytiva Life Sciences) using CM4 or CM5 sensor chips. The data were evaluated using BIAevaluation 4.1.1 software (Cytiva Life Sciences). The chip surface was activated by injecting 35 μl of a 1:1 mixture of 0.05 M N-hydroxysuccinimide and 0.2 M N-ethyl-N-(dimethylaminopropyl) carbodiimide at 5 μl/min. NeutrAvidin, HIV gp120, sCD4 (D1D2) or Hu-MAdCAM-Ig (R&D Systems) at concentrations of 5 μg/ml in 10mM NaOAc, pH 4.5, were immobilized to 250–750 resonance units (RU). After the proteins were immobilized to the desired densities, unreacted sites were blocked with 35 μl of 1 M Tris-HCl (pH 8.0). Biotinylated cyclic V2 peptides (1 μg/ml in 20 mM Tris-HCl, pH 8.0) were bound to the NeutrAvidin surfaces to densities of approximately 250–300 RU. One surface was activated and blocked without ligand as a control surface for non-specific binding. Signal from the control surface was subsequently subtracted. Running buffer was HBS (pH 7.4), 1 mM MnCl2, 0.005% Tween- 20, 0.05% soluble carboxymethyl-dextran. Binding experiments were carried out at a flow rate of 25 μl/min at 25°C. After a 2 min injection, the surface was washed for an additional 2 min in running buffer allowing dissociation of the bound ligand from the surface. The surfaces were regenerated by multiple injections of 4.5 M MgCl2 at a flow rate of 100 μl/min. Inhibition of ⍺4β7 binding by linear V2-loop and CD4 derived peptides was carried out by pre-incubating ⍺4β7 with the peptides in running buffer at the indicated concentrations for 2 hours at room temperature prior to passing them over the prepared surfaces as described above. […]

[2] = test system: ⍺4β7 on RPMI8866 cells; assay: Flow cytometry: cross-inhibition of MAdCAM-Ig, VCAM-Ig and D1D2-Ig⍺tp binding to RPMI8866 cells; design: species or system human; conditions: increasing concentrations of unlabeled inhibitor, Fig 2C, 2D
Procedure: Cis interactions between various integrins and leukocyte receptors are known to regulate immune cell functions. To determine whether CD4 inhibits MAdCAM-1 or VCAM-1 binding to ⍺4β7 we preincubated RPMI8866 cells with labelled MAdCAM-Ig or VCAM-Ig in the presence of increasing concentrations of unlabeled D1D2-Ig⍺tp. […] This implies that MAdCAM-1 and VCAM-1, acting in trans, may interfere with CD4-⍺4β7 interactions. What remains unknown is whether interactions between ⍺4β7 and CD4 impact CD4 migration into the TCR and subsequent interactions with MHC II (Fig 2E).
Fig 2 Cross-inhibition of MAdCAM-Ig, VCAM-Ig and D1D2-Ig⍺tp binding to ⍺4β7. Flow cytometric analysis of (A) PE -conjugated MAdCAM-Ig or (B) PE -conjugated VCAM-Ig binding to RPMI8866 cells pre-incubated with increasing concentrations of unlabeled D1D2-Igαtp. Cell preincubated with increasing concentrations of (C) unlabeled MAdCAM-Ig or (D) VCAM-Ig followed by PE -conjugated D1D2-Ig⍺tp. Y-axis indicates gMFI. Dashed line indicates gMFI in the absence of any inhibitor.
Cells were stained with fluoresceine conjugated mAbs or recombinant proteins using standard procedures preceded by Fc receptor blocking with human IgG. Buffers used were 10 mM HEPES 150 mM NaCl (HBS Buffer) with 100 μM CaCl2. […] Data were acquired using a FACSCanto II (BD Biosciences) and analyzed with FlowJo software (BD Biosciences). […]

QKKVEFKIDIVVLA [CD4 P42, linear CD4 D2 peptide, residues 165-178, G β-strand]
inhibition of ⍺4β7 binding to CD4 D1D2 coated surface [1]: ~ 66%

MAdCAM-Ig: recombinant MAdCAM-1 Ig fusion, R&D Systems [reference compound]
inhibition of PE-conjugated D1D2-Ig⍺tp binding to ⍺4β7 (in words) [2]: inhibited D1D2-Ig⍺tp binding to ⍺4β7 in a dose dependent manner
